{"source": "patent US12409206B2", "about": "“Use of cyclosporine analogues for treating fibrosis” (Hepion Pharmaceuticals, Inc., priority 2020, dated 2025)", "key": {"hepatitis B": {"tested_on": "hepatitis B", "details": "preclinical studies; cited from earlier work"}, "[1]": {"tested_on": "human precision cut liver slices (PCLS)", "assay": "PCLS Sirius red tissue fibrosis, Stimulation Protocol (TGFβ+PDGF-BB)", "format": "cell-based", "details": "compared with other NASH drug candidates", "method": "PCLS were obtained from 5 human donors who underwent resection of liver cancer. Replicate slices were collected from healthy margins of the resections and cultured for 4 or 6 days depending on the experimental protocol. In the Nonstimulation Protocol slices were cultured for 6 days and treated for the entire period with DMSO vehicle or 5 μM CRV431. In the Stimulation Protocol slices were rested for 1 day and then administered the cytokines, TGFβ and PDGF-BB, for 3 days to stimulate inflammation and fibrosis. […]\nFour types of evaluations were conducted on the PCLS: (a) secretion of inflammation and fibrosis biomarkers into the culture medium, (b) histological staining and quantitation of Sirius red as a measure of tissue fibrosis, (c) gene expression of inflammation and fibrosis biomarkers by RT-PCR, and (d) RNA sequencing (RNA-Seq) of the complete transcriptome. […] ELISAs were used to quantify secretion of monocyte chemoattractant protein (MCP-1), interleukin-6 (IL-6), tissue inhibitor of metalloproteinase-1 (TIMP1), hyaluronic acid, fibronectin, and collagen 1α1. For each donor the mean level of biomarker secretion in each treatment group was expressed as a percentage change relative to DMSO vehicle, the percentages averaged for all donors, and finally the mean daily percentage change calculated from all days of evaluation. […]"}, "HIV": {"tested_on": "HIV", "details": "preclinical studies; cited from earlier work"}, "[2]": {"tested_on": "human precision cut IPF lung slices", "assay": "Secreted markers (ELISA) in precision cut IPF lung slices in culture", "format": "cell-based", "details": "CRV431 applied at 5 μM; 4 daily treatment intervals; relative to DMSO vehicle", "method": "This example describes a study conducted with precision cut lung slices. Precision cut slices from explanted lung tissue from a patient with biopsy-confirmed, idiopathic pulmonary fibrosis (IPF) were cultured for 6 days. Treatments were applied to 6 replicate slices per treatment on Day 2 of culture and replaced daily on Days 3, 4, and 5 of culture.\nFor generating the results of secreted marker (% daily average change) shown in FIG. 6A, spent medium (24-hr intervals) was collected on Days 3, 4, 5, and 6 to measure secretion by ELISA of six markers of inflammation and fibrosis: monocyte chemoattractant protein (MCP-1), interleukin-6 (IL-6), matrix metalloproteinase-7 (MMP-7), tissue inhibitor of metalloproteinase-1 (TIMP1), hyaluronic acid, and collagen 1α1. The mean level of secretion from 6 replicate slices for each drug treatment was expressed as a percentage change relative to DMSO vehicle treatment for each day of treatment, and then the mean percentage change from 4 daily treatment intervals was calculated."}, "[3]": {"tested_on": "Human renal mesangial cells", "assay": "Cell viability analysis, renal mesangial cell culture", "format": "cell-based", "details": "end of 4 days of treatment", "method": "Human renal mesangial cells (ScienCell, Cat. #4200 (SC)) were cultured in 96-well plates. Treatments were applied in triplicate wells (applied 100 ul treatments per well) for 2 days, then re-applied for an additional 2 days. Cells were near confluence at the start of treatments. […] Spent culture medium collected from Day 2-4 of treatment was assayed for procollagen and fibronectin by enzyme-linked immunosorbent assays (ELISA) (Procollagen ELISA antibody pair (ab216064) and fibronectin ELISA antibody pair (ab222262) from Abcam). Procollagen and fibronectin were not detected in medium not applied to cells. Procollagen and fibronectin levels in the medium are represented by means±SD (bars) from 3 replicate wells (open circles)."}, "[4]": {"tested_on": "Human LX-2 Hepatic Stellate Cells", "assay": "Procollagen and fibronectin ELISA of spent medium, LX-2 culture", "format": "cell-based", "details": "24 hours, both in the absence or presence of 0.1 ng/ml TGFβ", "method": "Human LX-2 Hepatic Stellate Cells (Millipore-Sigma, Cat. #SCC064) were cultured in 96-well plates. Treatments were applied in triplicate wells (applied 100 ul treatments per well) for 24 hours. Cells were near confluence at the start of treatments. […] Spent culture medium collected at the end of the treatments was assayed for procollagen and fibronectin by enzyme-linked immunosorbent assays (ELISA) (Procollagen ELISA antibody pair (ab216064) and fibronectin ELISA antibody pair (ab222262) from Abcam). Procollagen and fibronectin were not detected in medium not applied to cells. Procollagen and fibronectin levels in the medium are represented by means±SD (bars) from 3 replicate wells (open circles)."}, "hepatitis C": {"tested_on": "hepatitis C", "details": "preclinical studies; cited from earlier work"}, "liver": {"tested_on": "liver", "details": "a number of in vivo models; cited from earlier work"}, "[5]": {"tested_on": "five different types of fibroblasts", "assay": "ECM production (procollagen, fibronectin ELISA), summary over five types of fibroblasts", "format": "cell-based, Human", "details": "dose-dependent; at clinically relevant concentrations", "text": "In the present example, five different types of fibroblasts, including (1) lung fibroblasts from a patient with idiopathic pulmonary fibrosis (“IPF”), (2) cardiac fibroblasts, (3) dermal (skin) fibroblasts, (4) renal mesangial cells, and (5) the LX2 hepatic stellate cell line, were used to determine the ability of CRV431 in decreasing production of the ECM molecules, collagen and fibronectin.\nThe extent of inhibition was similar whether or not the cells were stimulated with the profibrotic agent, transforming growth factor-beta (TGFβ), consistent with direct effects on ECM synthesis."}}, "data": [{"smiles": "CC[C@@H]1NC(=O)[C@H]([C@H](O)[C@H](C)CCCCCCNC(C)=O)N(C)C(=O)[C@H](C(C)C)N(C)C(=O)[C@H](CC(C)C)N(C)C(=O)[C@H](CC(C)C)N(C)C(=O)[C@@H](C)NC(=O)[C@H](C)NC(=O)[C@H](CC(C)C)N(C)C(=O)[C@H](C(C)C)NC(=O)[C@H](CC(C)C)N(C)C(=O)[C@@H](C)N(C)C1=O", "note": "[CRV431]", "values": [{"measurement": "anti-viral activity", "setting": "hepatitis B", "result": "shows anti-viral activity"}, {"measurement": "preventing TGFβ+PDGF-BB-induced tissue fibrosis", "setting": "[1]", "result": "most effective of five NASH drug candidates"}, {"measurement": "anti-viral activity", "setting": "HIV", "result": "shows anti-viral activity"}, {"measurement": "mean daily secretion of all markers (MCP-1, IL-6, MMP-7, TIMP1, hyaluronic acid, collagen 1α1)", "setting": "[2]", "result": "decreased"}, {"measurement": "cell viability", "setting": "[3]", "result": "none of the CRV431 treatments affected cell viability"}, {"measurement": "abundance of fibronectin in the medium", "setting": "[4]", "result": "dose-dependently decreased"}, {"measurement": "abundance of procollagen in the medium", "setting": "[4]", "result": "dose-dependently decreased"}, {"measurement": "anti-viral activity", "setting": "hepatitis C", "result": "shows anti-viral activity"}, {"measurement": "anti-fibrotic activity in the liver", "setting": "liver", "result": "anti-fibrotic activity"}, {"measurement": "decrease of ECM production", "setting": "[5]", "result": "up to 55%"}]}]}
